# Laboratory results from patent publication US12616203B2, “Use of 3-isoxazolidinones compounds as selective herbicides” (FMC Corporation, priority 2014, dated 2026).
# “Also recorded” adds a separate entry of the source.
# Key:
# weeds; Wheat and canola [1] = assay: Ex44 PRE greenhouse; type: in vivo; settings: weed and rate in the words
# Description: Redroot pigweed (Amaranth retroflexus, AMARE), Italian ryegrass (Lolium perenne. multiflorum, LOLMU), wild mustard (Sinapis arvensis, SINAR), annual bluegrass (Poa annua POAAN), wild oat (Avena fatua, AVEFA), blackgrass (Alopecurus myosuroides, ALOMY), common lambsquarters (Chenopodium album, […] (Phalaris minor, PHAMI), common chickweed (Stellaria media, STEME), corn poppy (Papaver rhoeas, PAPRH) and silky […]). Crops tested included wheat and canola. […] Treatments were applied before the emergence of redroot pigweed, Italian ryegrass, wild oat, blackgrass, littleseed canarygrass, common chickweed, common lambsquarters, corn poppy, wild mustard, annual bluegrass, silky […], canola, and wheat. […] Flats were watered and fertilized routinely after treatment application.
# weeds; Wheat and canola [2] = assay: Ex35 PRE greenhouse; type: in vivo; settings: rate in the words
# Description: Crops screened were wheat and canola.
# Velvetleaf = assay: Ex37 PRE 2,4-DC + atrazine, % control 28 DAT, Colby; type: in vivo, Abutilon theophrasti
# Description: (§1) S-metolachlor (DUAL II MAGNUM®, 82.4%) at 525 g ai/h plus atrazine at 560 g ai/h was included as a standard for comparison. […] Thereafter flats were watered and fertilized routinely.
# weeds = assay: Ex13 PRE greenhouse; type: in vivo; settings: 28 DAT, weed and rate in the words
# Description: (§2) Pyroxasulfone (KIH-485, 85%) at 74.3 g ai/ha, pendimethalin (Prowl 3.3EC, 37.4%) at 1200 g ai/ha, or a premix of chlorsulfuron plus metsulfuron-methyl (Report Extra, 75%) at 15.8 g ai/ha were applied as commercial standards. […] Treatments were replicated 3 times and flats were watered after planting before the treatment and lightly watered after treatment application. Thereafter flats were watered and fertilized routinely.
# weeds; Wheat and Barley [3] = assay: Ex41 POST greenhouse; type: in vivo; settings: rate in the words
# Experimental: Treatments were applied to wheat and barley crops.
# Nonionic surfactant was added at 0.5% v/v in all treatments. Treatments were applied to wheat (5.5″), barley (5″), wild oat (5.5″), common chickweed (2″), wild buckwheat (3″), and common lambsquarters (2″). All plant species were direct seeded into 3″ plastic pots using metro-mix as growth media and pots were watered well before application and watered 24 h after application. Plants were watered and fertilized routinely after treatment application. Each treatment was replicated four times.
# common chickweed = assay: Ex14 POST 2,4-DC + bromoxynil, % control 28 DAT, Colby; type: in vivo, Stellaria media
# Description: (§3) The study further assessed post crop safety on Wheat and Barley.
# (§4) Nonionic surfactant at 0.5% (v/v) was included with commercial standards application. No adjuvant was applied with any other treatments. All plant species were direct seeded into 3″ plastic pots using metro-mix as growth media. At treatment application common lambsquarters was 1.75″, common chickweed was 2″, wild mustard was 2.25″, wild oat was 5.5″, wild buckwheat was 2-5″, Italian ryegrass was 2-3″, wheat was 5.5″, and barley was 4.5″ in height. Plants were watered well before application and not watered 24 h after application. Plants were watered and fertilized routinely after treatment application. Each treatment was replicated four times.
# Pennsylvania smartweed = assay: Ex33 PRE 2,4-DC + fluthiacet-methyl + pyroxasulfone, % control 28 DAT, Colby; type: in vivo, Polygonum pensylvanicum
# Description: (§5) ANTHEM® (fluthiacet-methyl, 0.69% plus pyroxasulfone, 22.61%) was included as a standard at labeled rate, Fluthiacet-methyl at 4.9 g ai/ha and pyroxasulfone at 165 g ai/ha. […] The following weeds were screened, Palmer amaranth, Pennsylvania smartweed, velvetleaf, green foxtail, morningglory, Italian ryegrass, prickly sida, and yellow nutsedge. Crops screened were cotton, lentil, mung bean, bush bean, and cowpea. […] Thereafter flats were watered and fertilized routinely.
# canola and wheat = assay: Ex43 PRE crop safety; type: in vivo; settings: crop and rate in the words
# Yellow nutsedge [4] = assay: Ex39 PRE 2,4-DC + pyroxasulfone + carfentrazone, % control 28 DAT, Colby
# Wild mustard = assay: Ex13 PRE 2,4-DC + diflufenican, % control 28 DAT, Colby; type: in vivo, Sinapis arvensis
# Description: as §2
# Wild oat = assay: Ex12 PRE 2,4-DC + dimethenamid-P, % control 28 DAT, Colby; type: in vivo, Avena fatua
# Experimental: The tested weeds include: wild buckwheat (Polygonum convolvulus, POLCO), velvetleaf (Abutilon theophrasti, ABUTH), cheat (Bromus secalinus, BROSE), wild oat (Avena fatua, AVEFA), radish (Raphanus sativus, RAPSN), corn poppy (Papaver rhoeas, PAPRH), yellow foxtail (Setaria pumila, SETLU), Italian ryegrass (Lolium perenne ssp. multiflorum, LOLMU). The tested crop was Oilseed rape.
# This greenhouse study was conducted to assess the preemergence (PRE) weed control and oilseed rape tolerance with 2,4 DC (CS 36.7%) and dimethenamid-P (Outlook®, 63.9%) tank-mix combinations.
# Metazachlor (Butisan, 43.1%) plus dimethenamid-P applied as tank mix at 500 g each was applied as commercial standard. Treatments were replicated 3 times and flats were watered after planting but before the treatment and then lightly watered after treatment application. Thereafter flats were watered and fertilized routinely.
# [5] = tested on: weeds; corn, sweet corn, and sorghum; assay: Ex37 PRE greenhouse; type: in vivo; settings: weed and rate in the words
# Description: as §1
# Yellow nutsedge [6] = assay: Ex32 PRE 2,4-DC + pyroxasulfone + sulfentrazone, % control 28 DAT, Colby; type: in vivo, Cyperus esculentus
# Description: Treatments were applied at the time of planting to Italian ryegrass, green foxtail, littleseed canarygrass, wild oat, quackgrass, dandelion, common chickweed, white clover, yellow nutsedge, redroot pigweed, field bindweed, canola, and wheat. […] Flats were watered and fertilized routinely after treatment application.
# [7] = tested on: weeds; cotton, lentil, mung bean, bush bean, and cowpea; assay: Ex33 PRE greenhouse; type: in vivo; settings: rate in the words
# Description: as §5
# sedges = assay: Ex26 PRE greenhouse; type: in vivo; settings: 28 DAT, weed and rate in the words
# Description: Treatments were applied at the time of planting to yellow nutsedge, purple nutsedge, and benghal dayflower. […] Flats were watered and fertilized routinely after treatment application.
# weeds; Wheat and Barley [8] = assay: Ex14 POST greenhouse; type: in vivo; settings: 28 DAT, rate in the words
# Description: as §3, §4
smiles,measurement,setting,value
"CC1(C)CON(Cc2ccc(Cl)cc2Cl)C1=O [2,4-DC, 2-(2,4-dichlorophenyl)methyl-4,4-dimethyl-3-isoxazolidinone]",weed control in words,weeds; Wheat and canola [1],"alone provided control of corn poppy at ≥100 g, Italian ryegrass at ≥200 g, lambsquarters, 400 g, blackgrass at ≥200 g, silky windgrass at ≥100 g and chickweed at all rates"
same,weed control / crop safety in words,weeds; Wheat and canola [2],"alone at 50 g ai/ha controlled (≥85% injury) common chickweed, at 100 g controlled blackgrass and wild buckwheat; also recorded: alone was safe on wheat and canola (≤10% injury) when applied at 50 and 100 g"
same,"X (% control, 2,4-DC alone)","Velvetleaf; PRE, 2,4-DC 50 g ai/ha",18%
same,"X (% control, 2,4-DC alone)","Velvetleaf; PRE, 2,4-DC 100 g ai/ha",19%
same,"X (% control, 2,4-DC alone)","Velvetleaf; PRE, 2,4-DC 200 g ai/ha",90%
same,weed control in words,weeds,alone at all rates did not control most of the species
same,weed control / crop safety in words,weeds; Wheat and Barley [3],"Wheat was safe with 2,4-DC alone up to 170 g ai/ha, barley was not safe with any rate of 2,4-DC alone"
same,X,"common chickweed; 2,4-DC alone 125 g ai/ha",9%
same,X,"common chickweed; 2,4-DC alone 170 g ai/ha",7%
same,X,"common chickweed; 2,4-DC alone 210 g ai/ha",14%
same,X,"common chickweed; 2,4-DC alone 250 g ai/ha",28%
same,X,"Pennsylvania smartweed; 2,4-DC alone 31 g ai/ha",10%
same,X,"Pennsylvania smartweed; 2,4-DC alone 63 g ai/ha",23%
same,X,"Pennsylvania smartweed; 2,4-DC alone 125 g ai/ha",57%
same,X,"Pennsylvania smartweed; 2,4-DC alone 250 g ai/ha",100%
same,X,"Pennsylvania smartweed; 2,4-DC alone 375 g ai/ha",99%
same,crop safety in words,canola and wheat,alone was safe (≤10% injury) on canola at ≤200 g ai/ha and safe on wheat at ≤100 g
same,"X (% control, 2,4-DC alone)","Yellow nutsedge [4]; PRE, 2,4-DC 50 g ai/ha",1%
same,"X (% control, 2,4-DC alone)","Yellow nutsedge [4]; PRE, 2,4-DC 100 g ai/ha",3%
same,"X (% control, 2,4-DC alone)","Yellow nutsedge [4]; PRE, 2,4-DC 200 g ai/ha",3%
same,X,"Wild mustard; 2,4-DC alone 125 g ai/ha",10%
same,X,"Wild mustard; 2,4-DC alone 170 g ai/ha",15%
same,X,"Wild mustard; 2,4-DC alone 210 g ai/ha",26%
same,X,"Wild mustard; 2,4-DC alone 250 g ai/ha",23%
same,X,"Wild oat; 2,4-DC alone 125 g ai/ha",9%
same,X,"Wild oat; 2,4-DC alone 170 g ai/ha",27%
same,X,"Wild oat; 2,4-DC alone 210 g ai/ha",27%
same,X,"Wild oat; 2,4-DC alone 250 g ai/ha",29%
same,weed control in words,[5],applied alone at ≥50 g ai/ha controlled barnyardgrass 28 DAT; also recorded: applied alone at ≥200 g controlled velvetleaf and redroot pigweed
same,X,"Yellow nutsedge [6]; 2,4-DC alone 50 g ai/ha",0%
same,X,"Yellow nutsedge [6]; 2,4-DC alone 100 g ai/ha",0%
same,X,"Yellow nutsedge [6]; 2,4-DC alone 200 g ai/ha",17%
same,weed control / crop safety in words,[7],"controlled prickly sida, at 125 g controlled green foxtail"
same,weed control / crop safety in words,"[7]; listed as 2, 4 DC","applied alone PRE was safe on cotton, mung bean, bush bean, and cowpea at all rates, lentil was not safe at any rate"
same,weed control in words,sedges,alone did not provide control of sedges at any rate except benghal dayflower at 400 g
same,weed control / crop safety in words,weeds; Wheat and Barley [8],"applied alone did not control any weed in the assay, and was safe at all rates on both wheat and barley"
